Experimental data: the Bradley open melting point set (2014)

Row | SMILES | melting point
1 | O=C1CCC(c2ccc(Br)cc2)=NN1 [6-(4-bromophenyl)-4,5-dihydro-3(2h)-pyridazinone] | 169 °C
2 | COc1ccc2nc(N)sc2c1 [6-Methoxy-1,3-benzothiazol-2-amine] | 166 °C
3 | Cc1n[nH]c(=S)[nH]c1=O [6-aza-2-thiothymine] | 220 °C
4 | Cc1n[nH]c(=O)[nH]c1=O [6-azathymine] | 213 °C
5 | CCCC(=O)c1cc2cc(Br)ccc2oc1=O [6-bromo-3-butyrylcoumarin] | 164 °C
6 | Brc1ccc2ncsc2c1 [6-bromobenzothiazole] | 53 °C
7 | Cn1c(Cl)cc(=O)n(C)c1=O [6-chloro-1,3-dimethyluracil] | 110 °C
8 | O=C(O)C1=Cc2cc(Cl)ccc2OC1 [6-chloro-2h-chromene-3-carboxylic acid] | 243 °C
9 | Oc1cc(C(F)(F)F)nc2ccc(Cl)cc12 [6-chloro-4-hydroxy-2-(trifluoromethyl)quinoline] | 279 °C
10 | CCOc1ccc(B(O)O)cn1 [6-ethoxypyridine-3-boronic acid] | 103 °C
11 | O=C(O)c1c(O)cccc1F [6-fluorosalicylic acid] | 160 °C
12 | C=CCCCCC(=O)O [6-heptenoic acid] | -6 °C
13 | COc1ccc(B(O)O)cn1 [6-methoxypyridine-3-boronic acid] | 133 °C
14 | Cc1ccc2ncccc2c1[N+](=O)[O-] [6-methyl-5-nitroquinoline] | 117 °C
15 | O=Cc1cc2c(cc1[N+](=O)[O-])OCO2 [6-nitropiperonal] | 95 °C
16 | Cc1cc(=O)oc2cc(O)ccc12 [7-Hydroxy-4-methyl-2H-chromen-2-one] | 191 °C
17 | O=C1Nc2c(Br)cccc2C1=O [7-bromoisatin] | 197 °C
18 | CCN(CC)c1ccc2c(C)cc(=O)oc2c1 [7-diethylamino-4-methylcoumarin] | 74 °C
19 | O=c1cc(C(F)(F)F)c2ccc(O)cc2o1 [7-hydroxy-4-(trifluoromethyl)coumarin] | 179 °C
20 | CC(C)C1=C(O)C(=O)C2=C(CCC3C(C)(C)CCCC23C)C1=O (stereo not drawn) [7alpha-12-Hydroxy-8,12-abietadiene-11,14-dione] | 181 °C
21 | O=C1c2ccccc2-c2cccc3cccc1c23 [7h-benz[de]anthracen-7-one] | 173 °C
22 | Nc1cccc2ccc(O)cc12 [8-amino-2-naphthol] | 208 °C
23 | O=C(O)CCCCCCCBr [8-bromooctanoic acid] | 39 °C
24 | O=C1C(=O)c2ccccc2-c2ccccc21 [9,10-phenanthrenequinone] | 210 °C

Row | SMILES | melting point
25 | ClCc1c2ccccc2cc2ccccc12 [9-(chloromethyl)anthracene] | 140 °C
26 | Clc1c2ccccc2cc2ccccc12 [9-Chloroanthracene] | 104 °C
27 | Cc1c2ccccc2cc2ccccc12 [9-Methylanthracene] | 78 °C
28 | Clc1c2ccccc2cc2ccccc12 [9-chloroanthracene] | 104 °C
29 | Oc1cccc2ccc3cccnc3c12 [10-hydroxybenzo[h]quinoline] | 104 °C
30 | CCCCc1c2c(cc3c1-c1ccccc1OC3)CCCC2=O [12-Butyl-9,10-dihydro-6H-naphtho[2,3-c]chromen-11(8H)-one] | 91 °C
31 | C[C@]12CCC(=O)C=C1CC[C@@H]1[C@@H]2CC[C@]2(C)C(=O)CC[C@@]12O [14-hydroxyandrost-4-ene-3,17-dione] | 258 °C
32 | C=C1C(=O)C23C(OC(C)=O)CC4C(C)(C)CCC(OC(C)=O)C4(C)C2C(OC(C)=O)CC1C3OC(C)=O (stereo unspecified) [15-oxokaur-16-ene-1,7,11,14-tetrayl tetraacetate] | 237 °C
33 | CC(=O)OC1CCC2(C)C3CCC4=C(CCC4(C)C#CCl)C3CCC2(C)C1 (stereo unspecified) [17-(chloroethynyl)-5,10,17-trimethylgon-13-en-3-yl acetate] | 110 °C
34 | CC(=O)OC1CCC2(C)C(CCC3C2CCC2(C)C3CCC2(O)C#Cc2ccccc2)C1 (stereo unspecified) [17-hydroxy-21-phenylpregn-20-yn-3-yl acetate] | 166 °C
35 | CCC1(O)CCC2C3CCC4CC(OC(C)=O)CCC4(C)C3CCC21C (stereo unspecified) [17-hydroxypregnan-3-yl acetate] | 165 °C
36 | O=C(/C=C/OC(=O)c1ccccc1)CCc1ccccc1 [(1E)-3-oxo-5-phenylpent-1-en-1-yl benzoate] | 100 °C
37 | CC1(C)[C@H]2CC[C@](C)(C2)[C@H]1O [(1R)-endo-fenchyl alcohol] | 41 °C
38 | CN[C@@H](C)[C@H](O)c1ccccc1 [(1R,2S)-2-(Methylamino)-1-phenylpropan-1-ol] | 36 °C
39 | O[C@@H]1CCC[C@@H]1O [(1R,2S)-Cyclopentane-1,2-diol] | 32.5 °C
40 | Nc1ccc(C/C(=N/O)c2ccc(N)cc2)cc1 [(1Z)-1,2-bis(4-aminophenyl)ethanone oxime] | 147 °C
41 | CC1(C)O[C@]2(C)CC[C@H]1CC2 [(1s,4s)-1,3,3-Trimethyl-2-oxabicyclo[2.2.2]octane] | 2 °C
42 | OC/C(Br)=C(\Br)CO [(2E)-2,3-Dibromobut-2-ene-1,4-diol] | 113 °C
43 | O=C(OC(=O)/C(=C/c1ccccc1)Cc1ccccc1)/C(=C/c1ccccc1)Cc1ccccc1 [(2E)-2-benzyl-3-phenylprop-2-enoic anhydride] | 108 °C
44 | O=C(/C=C/c1ccc(-c2ccc([N+](=O)[O-])cc2)o1)c1ccccc1 [(2E)-3-[5-(4-Nitrophenyl)-2-furyl]-1-phenylprop-2-en-1-one] | 158 °C
45 | N#C/C=C/C#N [(2E)-But-2-enedinitrile] | 97 °C
46 | O=C1CSc2ccccc2N1 [(2h)1,4-benzothiazin-3(4h)-one] | 177 °C
47 | CC(C)[C@@H](C)/C=C/[C@@H](C)[C@H]1CC[C@H]2C3=CC=C4C[C@@H](O)CC[C@]4(C)[C@H]3CC[C@]12C [(3beta,22E)-Ergosta-5,7,22-trien-3-ol] | 160 °C

Other lines, results leading:

Row | melting point | SMILES
48 | 128 °C | CCSC(SCC)C(O)C(O)C(O)C(O)CO (stereo unspecified) [6,6-di(ethylthio)hexane-1,2,3,4,5-pentaol]
49 | 88 °C | Nc1ccc2ncsc2c1 [6-aminobenzothiazole]
50 | 117 °C | Nc1ccc2ncccc2c1 [6-aminoquinoline]
51 | 58 °C | O=C1CCc2ccc(F)cc21 [6-fluoro-1-indanone]
52 | 212 °C | COc1ccc2c(c1)=NC(c1ccccc1)C=2c1ccccc1 (stereo unspecified) [6-methoxy-2,3-diphenyl-1H-indole]
53 | 19 °C | COc1ccc2ncccc2c1 [6-methoxyquinoline]
54 | 133 °C | COc1cc(C=O)c([N+](=O)[O-])cc1OC [6-nitroveratraldehyde]
55 | 198 °C | CC(C)C1=C(O)C(=O)C2=C(C(=O)CC3C(C)(C)CCCC23C)C1=O (stereo unspecified) [7-Oxoroyleanone]
56 | 43 °C | Brc1cccc2cc[nH]c12 [7-bromoindole]
57 | 188 °C | O=C1CC(c2ccccc2)Oc2cc(O)ccc21 (stereo unspecified) [7-hydroxyflavanone]
58 | 160 °C | C/C(=N\Nc1cccc2cccnc12)c1cccs1 [8-{(2E)-2-[1-(2-Thienyl)ethylidene]hydrazino}quinoline]
59 | 69 °C | CCn1c2ccccc2c2ccccc21 [9-Ethyl-9H-carbazole]
60 | 91 °C | Cn1c2ccccc2c2ccccc21 [9-Methyl-9H-carbazole]
61 | 163 °C | OCc1c2ccccc2cc2ccccc12 [9-anthracenemethanol]
62 | 69 °C | CCn1c2ccccc2c2ccccc21 [9-ethylcarbazole]
63 | 135 °C | CC1(C)CCC2=C1CCC1C2CCC2CC(=O)CCC21C (stereo unspecified) [10,17,17-trimethylgon-13-en-3-one]
64 | 119 °C | FC1(F)C2=CC=CC=C1C=CC=C2 [11,11-Difluoro-1,6-methano[10]annulene]

Row | melting point | SMILES
65 | 80.5 °C | CCCCCCC(O)CCCCCCCCCCC(=O)O (stereo unspecified) [12-Hydroxyoctadecanoic acid]
66 | 177 °C | CC12CCC(=O)CC1CCC1C2CCC2(C)C1CCC2(O)CCc1ccccc1 (stereo unspecified) [17-hydroxy-21-phenylpregnan-3-one]
67 | 141 °C | C#CC1(O)CCC2C3CCc4cc(O)ccc4C3CCC21C (stereo unspecified) [17a-Ethynylestradiol]
68 | 150 °C | O=C(O)[C@@H]1[C@H](C(=O)O)[C@H]2C=C[C@@H]1C2 [(1R,2R,3S,4S)-Bicyclo[2.2.1]hept-5-ene-2,3-dicarboxylic acid]
69 | 122 °C | OC1[C@H]2CC[C@@H]1[C@H]1C=C[C@@H]2O1 (stereo partly drawn) [(1R,2S,5R,6S)-9-oxatricyclo[4.2.1.1~2,5~]dec-7-en-10-ol]
70 | 179 °C | CC1(C)C2CC[C@]1(C)C(=O)C2 [(1S)-1,7,7-Trimethylbicyclo[2.2.1]heptan-2-one]
71 | 183 °C | CC1(C)[C@@H]2CC[C@]13CS(=O)(=O)N[C@@H]3C2 [(1S,2R)-10,2-camphorsultam]
72 | 158 °C | O=C(OCCc1cc([N+](=O)[O-])c(CCOC(=O)c2ccccc2)cc1[N+](=O)[O-])c1ccccc1 [(2,5-dinitrobenzene-1,4-diyl)diethane-2,1-diyl dibenzoate]
73 | 133 °C | O=C(O)/C=C/c1ccccc1 [(2E)-3-Phenylacrylic acid]
74 | 127 °C | O=C(/C=C/c1ccc(-c2ccc(Cl)cc2)o1)c1ccccc1 [(2E)-3-[5-(4-Chlorophenyl)-2-furyl]-1-phenylprop-2-en-1-one]
75 | 101 °C | Cc1ccc(-c2ccc(/C=C/C(=O)c3ccccc3)o2)cc1 [(2E)-3-[5-(4-Methylphenyl)-2-furyl]-1-phenylprop-2-en-1-one]
76 | 146 °C | CC12CCC(C=C/C1=N\O)C2(C)C (stereo unspecified) [(2E)-N-hydroxy-1,8,8-trimethylbicyclo[3.2.1]oct-3-en-2-imine]
77 | 16 °C | C[C@@H](O)[C@@H](C)O [(2R,3R)-Butane-2,3-diol]
78 | 160 °C | NC(=O)/C=C\C(=O)O [(2Z)-4-Amino-4-oxobut-2-enoic acid]
79 | 102 °C | COc1ccc(SCC(=O)O)cc1OC [(3,4-dimethoxyphenylthio)acetic acid]
80 | 71 °C | OCc1ccc(Cl)cc1 [(4-Chlorophenyl)methanol]
81 | 45 °C | Cc1cc(CO)nn1-c1ccccn1 [(5-methyl-1-pyridin-2-yl-1H-pyrazol-3-yl)methanol]
